Entries after “also recorded” stand apart in the source; their conditions may differ.
Key:
[1] = test system: S. haemolyticus keratitis in rabbits; experiment: In-vivo antimicrobial efficacy in infectious S. haemolyticus keratitis (corneal CFU)
Description: (§1) After 24 hours, all corneas were likewise infected, and the rabbits were divided randomly into three groups. The rabbits (five) of Group I then were treated with the chlorite-hydrogen peroxide formulation defined above as cleaning while wearing contact lenses (here termed “Bactericide”); the rabbits (five) of Group II were treated with commercially available 0.3% ofloxacin antibiotic ophthalmic solution; and the rabbits (two) of Group III were untreated to serve as a control. At 24 and 48 hours post infection, the rabbits underwent visual eye examination, photographic documentation and biomicroscopy. After 24 hours of treatment, three animals each from Groups I and II and one animal from Group III were sacrificed. The eyes were enucleated and an 8 mm disc of cornea was homogenized and plated onto growth media for microbial isolation and quantification. After 48 hours of treatment, the same procedure was followed for the remaining animals.

[2] = test system: S. haemolyticus keratitis in rabbits; experiment: In-vivo clinical efficacy in infectious S. haemolyticus keratitis
Description: as §1

[3] = test system: antibiotic-resistant strain of staphylococcus haemolyticus; experiment: In-vitro antimicrobial effect (log reduction); assay type: cell-based
[4] = test system: antibiotic-resistant strain of pseudomonas aeruginosa; experiment: In-vitro antimicrobial effect (log reduction); assay type: cell-based
normal human eyes = settings: in the presence of sodium chlorite (400 ppm)
Description: Two drops of each formulation were then placed in the cul-de-sac of two normal human eyes. Upon instillation of the drops, the subjects were instructed to close their eyelids.

human eye = settings: hydrogen peroxide without sodium chlorite (0.01 wt. %); cited from earlier work
[5] = 24 hours after infection (before treatment)

## CC1COc2c(N3CCN(C)CC3)c(F)cc3c(=O)c(C(=O)O)cn1c23 (stereo not drawn) [0.3% Ofloxacin, ofloxacin]
[1]; 24 hours post treatment
  bacteria isolated from 8 mm disc of cornea, Average: 13,000 CFU
  bacteria isolated from 8 mm disc of cornea, individual animals: iii) 11,000 CFU; also recorded: i) 23,000 CFU; also recorded: ii) 5,000 CFU
[1]; 48 hours post treatment
  bacteria isolated from 8 mm disc of cornea, Average: 5,100 CFU
  bacteria isolated from 8 mm disc of cornea, individual animals: i) 5,000 CFU; also recorded: ii) 5,200 CFU
[2]; [5]
  corneal edema score: corneal edema (+2)
  hyperemia score: hyperemia (+2)
  inflammation score: inflammation(+2)
[2]; 24 hours after treatment
  corneal edema score: corneal edema (+2)
  hyperemia score: hyperemia (+2)
  inflammation score: inflammation(+2)
[2]; 48 hours after treatment
  corneal edema score: corneal edema (+1)
  hyperemia score: hyperemia (+1)
  inflammation score: inflammation(+1)

## OO [H202 alone, hydrogen peroxide]
[3]; 200 ppm, 1 hour
  Log Reduction: 0.20
[3]; 200 ppm, 2 hours
  Log Reduction: 0.23
[4]; 200 ppm, 1 hour
  Log Reduction: 0.01
[4]; 200 ppm, 2 hours
  Log Reduction: 0.54
Normal human eyes
  hydrogen peroxide levels very well tolerated by human eyes: up to 500 ppm
Human eye
  upper limit of human ocular tolerability: about 100 ppm

## sodium chlorite [NaClO2 alone]
[3]; 400 ppm, 1 hour
  Log Reduction: 0.11
[3]; 400 ppm, 2 hours
  Log Reduction: 1.01
[4]; 400 ppm, 1 hour
  Log Reduction: 0.351
[4]; 400 ppm, 1 hour, listed as sodium chlorite
  Log Reduction: 0.35
[4]; 400 ppm, 2 hours
  Log Reduction: 1.35

— patent US9072712B2, “Synergistic antimicrobial preparations containing chlorite and hydrogen peroxide” (priority 1999, dated 2015)
